For 28 compounds, IC50 results are on record in patent publication US12338262B2 (Forward Therapeutics, Inc., priority 2022, dated 2025).

Each structure is given as a SMILES string. pIC50: −log10 of the molar value.

TNF-α, sequence (P01375 77-233 limits assumed): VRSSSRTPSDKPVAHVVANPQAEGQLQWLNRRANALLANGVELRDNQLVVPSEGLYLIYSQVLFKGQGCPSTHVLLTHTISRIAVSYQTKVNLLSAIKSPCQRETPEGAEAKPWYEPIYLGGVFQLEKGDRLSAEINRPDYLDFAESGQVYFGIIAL

This experiment concerns the target TNF-α (Homo sapiens, UniProt P01375). Briefly: TNF-α Induced HEK Blue Cellular Assay. The note with it: HEK Blue TNFα reporter cells, TNF-α 100 pg/ml, 24 hrs at 37° C., secreted alkaline phosphatase (QUANTI-Blue, 620 nm). Format: cell-based. In short, it runs like this: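 Read-out is SEAP via QUANTI-Blue absorbance at 620 nm after a 24 h, 37 °C incubation of reporter HEK Blue cells with 100 pg/ml TNF-α plus compound at final […]–0.5 nM. Percent inhibition normalised to DMSO ± stimulation; 4-parameter logistic fit gives IC50.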
Compound `Cc1nc2ccc(-c3cnc(P(C)(C)=O)nc3)cc2c(N[C@H](C)c2cc(C#N)ccc2F)c1Cl` [Example 6, 3-[(1R)-1-({3-chloro-6-[2-(dimethylphosphoryl)pyrimidin-5-yl]-2-methylquinolin-4-yl}amino)ethyl]-4-fluorobenzonitrile] gave a negative logarithm of the IC50 (pIC50) of at least 6.00.

`Cc1nc2cc(F)c(-c3cnc(OCP(C)(C)=O)nc3)nc2c(N[C@H](C)c2cc(C#N)ccc2F)c1Cl` [Example 121, 3-[(1R)-1-[(3-chloro-6-{2-[(dimethylphosphoryl)methoxy]pyrimidin-5-yl}-7-fluoro-2-methyl-1,5-naphthyridin-4-yl)amino]ethyl]-4-fluorobenzonitrile] gave a pIC50 of at least 7.00.

Take `Cc1nc2cc(F)c(-c3ccc(P(C)(C)=O)nc3)nc2c(N[C@H](C)c2cc(F)cc(Cl)c2)c1Cl` [Example 130, 3-chloro-N-[(1R)-1-(3-chloro-5-fluorophenyl)ethyl]-6-[6-(dimethylphosphoryl)pyridin-3-yl]-7-fluoro-2-methyl-1,5-naphthyridin-4-amine]: the pIC50 was at least 6.00. Compound `Cc1nc2cc(F)c(-c3ccc(P(C)(C)=O)nc3)nc2c(N[C@H](C)c2cccc(C(F)F)c2)c1Cl` [Example 92, 3-chloro-N-[(1R)-1-[3-(difluoromethyl)phenyl]ethyl]-6-[6-(dimethylphosphoryl)pyridin-3-yl]-7-fluoro-2-methyl-1,5-naphthyridin-4-amine] showed a pIC50 of at least 7.00. Compound `Cc1nc2cc(F)c(-c3ccc(P(C)(C)=O)nc3)nc2c(N[C@H](C)c2cccc(F)c2F)c1C1CC1` [Example 134, 3-cyclopropyl-N-[(1R)-1-(2,3-difluorophenyl)ethyl]-6-[6-(dimethylphosphoryl)pyridin-3-yl]-7-fluoro-2-methyl-1,5-naphthyridin-4-amine] had a pIC50 of 5.00 to 6.00.

For the compound `CC[C@H](Nc1c(Cl)c(C)nc2cc(F)c(-c3cnc(P(C)(C)=O)nc3)cc12)c1cccc(F)c1F` [Example 115, (S)-(5-(3-chloro-4-((1-(2,3-difluorophenyl)propyl)amino)-7-fluoro-2-methylquinolin-6-yl)pyrimidin-2-yl)dimethylphosphine oxide], the pIC50 was at least 6.00. As for `CCOP(=O)(OCC)c1ccc(-c2nc3c(N[C@H](C)c4cc(C#N)ccc4F)c(Cl)c(C)nc3cc2F)cn1` [Example 32, diethyl 5-(7-chloro-8-{[(1R)-1-(5-cyano-2-fluorophenyl)ethyl]amino}-3-fluoro-6-methyl-1,5-naphthyridin-2-yl)pyridin-2-ylphosphonate], the pIC50 is at least 7.00. In turn, `Cc1cn(-c2ccc(F)c([C@@H](C)Nc3c(Cl)c(C)nc4cc(F)c(-c5ccc(P(C)(C)=O)nc5)nc34)c2)cn1` [Example 66, 3-chloro-6-[6-(dimethylphosphoryl)pyridin-3-yl]-7-fluoro-N-[(1R)-1-[2-fluoro-5-(4-methylimidazol-1-yl)phenyl]ethyl]-2-methyl-1,5-naphthyridin-4-amine] gave a pIC50 of at least 6.00. `CCC(Nc1c(Cl)c(C)nc2cc(F)c(-c3ccc(P(C)(C)=O)nc3)nc12)c1cnn(C)c1` (stereo not shown) [Example 104, 3-chloro-6-[6-(dimethylphosphoryl)pyridin-3-yl]-7-fluoro-2-methyl-N-[1-(1-methylpyrazol-4-yl)propyl]-1,5-naphthyridin-4-amine] gave a negative logarithm of the IC50 (pIC50) of at least 6.00. Compound `Cc1nc2cc(F)c(-c3cnc(P(C)(C)=O)nc3)nc2c(N[C@H](C)c2ccccc2C(F)(F)F)c1Cl` [Example 55, 3-chloro-6-[2-(dimethylphosphoryl)pyrimidin-5-yl]-7-fluoro-2-methyl-N-[(1R)-1-[2-(trifluoromethyl)phenyl]ethyl]-1,5-naphthyridin-4-amine] gave a pIC50 of 4.52 to 5.00. Regarding `Cc1nc2cc(F)c(-c3cnc(P(C)(C)=O)nc3)cc2c(N[C@H](C)c2ccccc2F)c1Cl` [Example 11, 3-chloro-6-[2-(dimethylphosphoryl)pyrimidin-5-yl]-7-fluoro-N-[(1R)-1-(2-fluorophenyl)ethyl]-2-methylquinolin-4-amine], the pIC50 is at least 7.00. `Cc1nc2ccc(-c3cnc(P(C)(C)=O)nc3)nc2c(N[C@H](C)c2cc(C#N)ccc2F)c1Cl` [Example 41, 3-[(1R)-1-({3-chloro-6-[2-(dimethylphosphoryl)pyrimidin-5-yl]-2-methyl-1,5-naphthyridin-4-yl}amino)ethyl]-4-fluorobenzonitrile] showed a pIC50 of at least 6.00. As to `Cc1nc2cc(F)c(-c3ccc(P(C)(C)=O)nc3)cc2c(N[C@@H](C)c2cncnc2)c1Cl` (single isomer, unassigned) [Example 101], the negative logarithm of the IC50 (pIC50) is 4.52 to 5.00. `Cc1nc2cc(F)c(-c3ccc(P(C)(C)=O)nc3)nc2c(N[C@H](C)c2cc(C#N)ccc2F)c1C` [Example 119, 3-[(1R)-1-({6-[6-(dimethylphosphoryl)pyridin-3-yl]-7-fluoro-2,3-dimethyl-1,5-naphthyridin-4-yl}amino)ethyl]-4-fluorobenzonitrile] showed a negative logarithm of the IC50 (pIC50) of at least 6.00. As to `Cc1nc2cc(F)c(-c3ccc(P(C)(C)=O)nc3)nc2c(N[C@H](C)c2c(F)cccc2F)c1Cl` [Example 52, 3-chloro-N-[(1R)-1-(2,6-difluorophenyl)ethyl]-6-[6-(dimethylphosphoryl)pyridin-3-yl]-7-fluoro-2-methyl-1,5-naphthyridin-4-amine], the pIC50 was at least 6.00. Then `CCC(Nc1c(Cl)c(C)nc2cc(F)c(-c3ccc(P(C)(C)=O)nc3)nc12)c1cccnc1` (stereo not shown) [Example 82, 3-chloro-6-[6-(dimethylphosphoryl)pyridin-3-yl]-7-fluoro-2-methyl-N-[1-(pyridin-3-yl)propyl]-1,5-naphthyridin-4-amine], with at least 7.00; and `Cc1nc2cc(F)c(-c3ccc(P(C)(C)=O)nc3)nc2c(N[C@H](c2ccccc2)C2CC2)c1Cl` [Example 140, 3-chloro-N—[(S)-cyclopropyl(phenyl)methyl]-6-[6-(dimethylphosphoryl)pyridin-3-yl]-7-fluoro-2-methyl-1,5-naphthyridin-4-amine], with at least 6.00.

Regarding `Cc1nc2cc(F)c(-c3ccc(P4(=O)CCOCC4)nc3)nc2c(N[C@H](C)c2cccc(F)c2F)c1Cl` [Example 143, 4-[5-(7-chloro-8-{[(1R)-1-(2,3-difluorophenyl)ethyl]amino}-3-fluoro-6-methyl-1,5-naphthyridin-2-yl)pyridin-2-yl]-1,4lambda5-oxaphosphinan-4-one], the pIC50 was 4.52 to 5.00. As for `Cc1nc2cc(F)c(-c3ccc(OCP(C)(C)=O)nc3)nc2c(N[C@H](C)c2cc(C#N)ccc2F)c1Cl` [Example 33, 3-[(1R)-1-[(3-chloro-6-{6-[(dimethylphosphoryl)methoxy]pyridin-3-yl}-7-fluoro-2-methyl-1,5-naphthyridin-4-yl)amino]ethyl]-4-fluorobenzonitrile], the pIC50 is at least 7.00.

`Cc1nc2cc(F)c(-c3ccc(P(C)(C)=O)nc3)nc2c(N[C@H](c2cc(F)cc(F)c2)C2CC2)c1Cl` [Example 139, 3-chloro-N—[(S)-cyclopropyl(3,5-difluorophenyl)methyl]-6-[6-(dimethylphosphoryl)pyridin-3-yl]-7-fluoro-2-methyl-1,5-naphthyridin-4-amine] showed a pIC50 of at least 6.00. Take `Cc1nc2cc(F)c(-c3ccc(P(C)(C)=O)nc3)nc2c(N[C@@H](c2ccccc2F)C(F)(F)F)c1Cl` [Example 70, 3-chloro-6-[6-(dimethylphosphoryl)pyridin-3-yl]-7-fluoro-2-methyl-N-[(1S)-2,2,2-trifluoro-1-(2-fluorophenyl)ethyl]-1,5-naphthyridin-4-amine]: the negative-log IC50 (pIC50) is at least 7.00. Take `CC[C@@H](Nc1c(Cl)c(C)nc2cc(F)c(-c3ccc(P(C)(C)=O)nc3)nc12)c1ccccc1F` [Example 22, 3-chloro-6-[6-(dimethylphosphoryl)pyridin-3-yl]-7-fluoro-N-[(1R)-1-(2-fluorophenyl)propyl]-2-methyl-1,5-naphthyridin-4-amine]: the pIC50 was at least 7.00. Take `Cc1nc2ccc(-c3ccc(P(C)(C)=O)nc3)cc2c(N[C@H](C)c2cc(C#N)ccc2F)c1Cl` [Example 5, 3-[(1R)-1-({3-chloro-6-[6-(dimethylphosphoryl)pyridin-3-yl]-2-methylquinolin-4-yl}amino)ethyl]-4-fluorobenzonitrile]: the pIC50 is at least 7.00. Compound `Cc1nc2cc(F)c(-c3ccc(P(C)(C)=O)nc3)nc2c(N[C@H](C)c2cc(C3CC3)ccc2F)c1Cl` [Example 150, 3-chloro-N-[(1R)-1-(5-cyclopropyl-2-fluorophenyl)ethyl]-6-[6-(dimethylphosphoryl)pyridin-3-yl]-7-fluoro-2-methyl-1,5-naphthyridin-4-amine] showed a pIC50 of at least 6.00. In turn, `Cc1nc2cc(F)c(-c3ccc(P(C)(C)=O)nc3)nc2c(N[C@H](CO)c2ccccc2F)c1Cl` [Example 59, (2S)-2-({3-chloro-6-[6-(dimethylphosphoryl)pyridin-3-yl]-7-fluoro-2-methyl-1,5-naphthyridin-4-yl}amino)-2-(2-fluorophenyl)ethanol] had a negative-log IC50 (pIC50) of 4.52 to 5.00. Compound `Cc1nc2cc(F)c(-c3cnc(P(C)(C)=O)c(F)c3)nc2c(N[C@H](C)c2cccc(F)c2F)c1Cl` [Example 107, 3-chloro-N-[(1R)-1-(2,3-difluorophenyl)ethyl]-6-[6-(dimethylphosphoryl)-5-fluoropyridin-3-yl]-7-fluoro-2-methyl-1,5-naphthyridin-4-amine] gave a negative logarithm of the IC50 (pIC50) of at least 6.00. `Cc1nc2cc(F)c(-c3ccc(P(C)(C)=O)nc3)nc2c(N[C@H](C)c2cc(C(N)=O)ccc2F)c1Cl` [Example 13, 3-[(1R)-1-({3-chloro-6-[6-(dimethylphosphoryl)pyridin-3-yl]-7-fluoro-2-methyl-1,5-naphthyridin-4-yl}amino)ethyl]-4-fluorobenzamide] had a negative-log IC50 (pIC50) of at least 7.00. Then `C#Cc1ccc(F)c([C@@H](C)Nc2c(Cl)c(C)nc3cc(F)c(-c4ccc(P(C)(C)=O)nc4)nc23)c1` [Example 98, 3-chloro-6-[6-(dimethylphosphoryl)pyridin-3-yl]-N-[(1R)-1-(5-ethynyl-2-fluorophenyl)ethyl]-7-fluoro-2-methyl-1,5-naphthyridin-4-amine], with at least 6.00.

For orientation: pIC50 means the negative decadic logarithm of the IC50, by convention in mol/L. Lower therefore signals a large IC50.
